This passage reports Drug metabolism and half-life results from ChEMBL document CHEMBL4339213, “Microwave-assisted synthesis and in vitro stability of N-benzylamide non-steroidal anti-inflammatory drug conjugates for CNS delivery” (Bioorg Med Chem Lett, 2019).

Each structure is given as a SMILES string.

Data set [1] in a line: Drug metabolism in human plasma assessed as release of the NSAID by LC-MS analysis. The format is ADME, cell-free.
Data set [2] is described as follows: Half life in pH 7.4 PBS at 125 uM incubated at 37 degC by HPLC analysis. The format is physicochemical.
Data set [3] is described as follows: Half life in human plasma at 125 uM by HPLC analysis. It counts as ADME, cell-free.
Data set [4] is described as follows: Half life in human plasma at 100 uM by HPLC analysis. It counts as ADME, cell-free.
A short description of data set [5]: Half life in human plasma. The format is ADME, cell-free.

As a reminder, the half-life is how long it takes for the measured level to halve. Higher therefore signals slow loss. With `CC(C)Cc1ccc(C(C)C(=O)OCCC(=O)NCc2ccccc2)cc1` (stereo not given), the Drug metabolism result in data set [1] is recorded as “Metabolite_Detected”. This compound also returned a half-life at 125 µM in data set [2] of over 48 h.

Consider `COc1ccc2cc([C@H](C)C(=O)OCCC(=O)NCc3ccccc3)ccc2c1`, for which the Drug metabolism result in data set [1] is “Metabolite_Detected”. The results for the half-life at 125 µM in data set [2] and in data set [3] were over 48 h and 4.7 min, respectively.

Regarding `CC(C(=O)OCCC(=O)NCc1ccccc1)c1ccc(-c2ccccc2)c(F)c1` (stereo not given), the Drug metabolism result in data set [1] is reported as “Metabolite_Detected”. For the same compound, in data set [2], the half-life at 125 µM was over 48 h. In data set [4], this compound displayed a half-life at 100 µM of 1.83 h.

As to `COc1ccc2c(c1)c(CC(=O)OCCC(=O)NCc1ccccc1)c(C)n2C(=O)c1ccc(Cl)cc1`, the Drug metabolism result in data set [1] is on record as “Metabolite_Detected”. In data set [5], this compound returned a half-life of over 3.6 h.
